These results are taken from PubChem BioAssay AID1259407 (Chemical Carcinogenesis Research Information System (CCRIS), 2018).

In the data set the test system is CCRIS mutagenicity, Ames/micronucleus/aberration tests. Put plainly: CCRIS mutagenicity studies.
Where [1] appears, read: Test System: AMES SALMONELLA TYPHIMURIUM, Strain/Indicator: TA98, Metabolic Activation: HAMSTER, LIVER, S-9, AROCLOR 1254 (10%), Method: PREINCUBATION
The mark [2] stands for this setting: Test System: AMES SALMONELLA TYPHIMURIUM, Strain/Indicator: TA98, Metabolic Activation: NONE, Method: PREINCUBATION
Where [3] appears, read: Test System: AMES SALMONELLA TYPHIMURIUM, Strain/Indicator: TA98, Metabolic Activation: NONE, Method: STANDARD PLATE.
Setting [4] is: Test System: AMES SALMONELLA TYPHIMURIUM, Strain/Indicator: TA98, Metabolic Activation: RAT, LIVER, S-9, AROCLOR 1254 (10%), Method: PREINCUBATION
Setting [5] is: Test System: AMES SALMONELLA TYPHIMURIUM, Strain/Indicator: TA98, Metabolic Activation: RAT, LIVER, S-9, AROCLOR 1254, Method: STANDARD PLATE.
The mark [6] stands for this setting: Test System: AMES SALMONELLA TYPHIMURIUM, Strain/Indicator: TA100, Metabolic Activation: HAMSTER, LIVER, S-9, AROCLOR 1254 (10%), Method: PREINCUBATION
The mark [7] stands for this setting: Test System: AMES SALMONELLA TYPHIMURIUM, Strain/Indicator: TA100, Metabolic Activation: NONE, Method: PREINCUBATION
[8] abbreviates: Test System: AMES SALMONELLA TYPHIMURIUM, Strain/Indicator: TA100, Metabolic Activation: NONE, Method: STANDARD PLATE.
Setting [9] is: Test System: AMES SALMONELLA TYPHIMURIUM, Strain/Indicator: TA100, Metabolic Activation: RAT, LIVER, S-9, AROCLOR 1254 (10%), Method: PREINCUBATION
The mark [10] stands for this setting: Test System: AMES SALMONELLA TYPHIMURIUM, Strain/Indicator: TA100, Metabolic Activation: RAT, LIVER, S-9, AROCLOR 1254, Method: STANDARD PLATE.
Setting [11] is: Test System: AMES SALMONELLA TYPHIMURIUM, Strain/Indicator: TA1535, Metabolic Activation: HAMSTER, LIVER, S-9, AROCLOR 1254 (10%), Method: PREINCUBATION
Setting [12] is: Test System: AMES SALMONELLA TYPHIMURIUM, Strain/Indicator: TA1535, Metabolic Activation: NONE, Method: PREINCUBATION
The mark [13] stands for this setting: Test System: AMES SALMONELLA TYPHIMURIUM, Strain/Indicator: TA1535, Metabolic Activation: RAT, LIVER, S-9, AROCLOR 1254 (10%), Method: PREINCUBATION
Setting [14] is: Test System: AMES SALMONELLA TYPHIMURIUM, Strain/Indicator: TA1537, Metabolic Activation: HAMSTER, LIVER, S-9, AROCLOR 1254 (10%), Method: PREINCUBATION
Setting [15] is: Test System: AMES SALMONELLA TYPHIMURIUM, Strain/Indicator: TA1537, Metabolic Activation: NONE, Method: PREINCUBATION
The mark [16] stands for this setting: Test System: AMES SALMONELLA TYPHIMURIUM, Strain/Indicator: TA1537, Metabolic Activation: RAT, LIVER, S-9, AROCLOR 1254 (10%), Method: PREINCUBATION

The source made the active and inactive calls. No rule for the calls is given here.

In the case of `CCCCC(CC)COC(=O)c1ccccc1C(=O)O` (configuration not stated), the mutagenic call (Test System: AMES SALMONELLA TYPHIMURIUM, Strain/Indicator: TA97, Metabolic Activation: NONE, Method: STANDARD PLATE) is “inactive; negative”; the mutagenic call (Test System: AMES SALMONELLA TYPHIMURIUM, Strain/Indicator: TA97, Metabolic Activation: RAT, LIVER, S-9, AROCLOR 1254, Method: STANDARD PLATE) was “inactive; negative”; the mutagenic call (Test System: AMES SALMONELLA TYPHIMURIUM, Strain/Indicator: TA97, Metabolic Activation: RAT, LIVER, S-9, DI(2-ETHYLHEXYL)PHTHALATE, Method: STANDARD PLATE) was “inactive; negative”; the mutagenic call under setting [1] was “inactive; negative”; the mutagenic call under setting [2] is “inactive; negative”; the mutagenic call under setting [3] is “inactive; negative”. Besides, the mutagenic call is, setting by setting: under setting [4], “inactive; negative”; under setting [5], “inactive; negative”; (Test System: AMES SALMONELLA TYPHIMURIUM, Strain/Indicator: TA98, Metabolic Activation: RAT, LIVER, S-9, DI(2-ETHYLHEXYL)PHTHALATE, Method: STANDARD PLATE) “inactive; negative”; under setting [6], “inactive; negative”; under setting [7], “inactive; negative”; under setting [8], “inactive; negative”. Moreover, the mutagenic call is, setting by setting: under setting [9], “inactive; negative”; under setting [10], “inactive; negative”; (Test System: AMES SALMONELLA TYPHIMURIUM, Strain/Indicator: TA100, Metabolic Activation: RAT, LIVER, S-9, DI(2-ETHYLHEXYL)PHTHALATE, Method: STANDARD PLATE) “inactive; negative”; (Test System: AMES SALMONELLA TYPHIMURIUM, Strain/Indicator: TA102, Metabolic Activation: NONE, Method: STANDARD PLATE) “inactive; negative”; (Test System: AMES SALMONELLA TYPHIMURIUM, Strain/Indicator: TA102, Metabolic Activation: RAT, LIVER, S-9, AROCLOR 1254, Method: STANDARD PLATE) “inactive; negative”; (Test System: AMES SALMONELLA TYPHIMURIUM, Strain/Indicator: TA102, Metabolic Activation: RAT, LIVER, S-9, DI(2-ETHYLHEXYL)PHTHALATE, Method: STANDARD PLATE) “inactive; negative”. The mutagenic call under setting [11] was “inactive; negative”; the mutagenic call under setting [12] was “inactive; negative”; the mutagenic call under setting [13] is “inactive; negative”; the mutagenic call under setting [14] was “inactive; negative”; the mutagenic call under setting [15] is “inactive; negative”; the mutagenic call under setting [16] is “inactive; negative”.
Regarding `O=C(O)Cc1c[nH]c2ccc(O)cc12`, under setting [7], the mutagenic call was “inactive; negative”.
As to `O=C(O)c1ccc(/C=N/n2nnc3c([nH]c4ccccc43)c2=O)cc1`, the mutagenic call is “active; positive” (Test System: AMES SALMONELLA TYPHIMURIUM, Strain/Indicator: TA97, Metabolic Activation: NONE, Method: PREINCUBATION); “active; positive” (Test System: AMES SALMONELLA TYPHIMURIUM, Strain/Indicator: TA97, Metabolic Activation: RAT, LIVER, S-9, AROCLOR 1254 (10%), Method: PREINCUBATION); “active; positive” under setting [2]; “active; positive” under setting [4]; “active; positive” under setting [7]; “active; positive” under setting [9]. The mutagenic call by setting is: (Test System: AMES SALMONELLA TYPHIMURIUM, Strain/Indicator: TA102, Metabolic Activation: NONE, Method: PREINCUBATION) “inactive; negative”; (Test System: AMES SALMONELLA TYPHIMURIUM, Strain/Indicator: TA102, Metabolic Activation: RAT, LIVER, S-9, AROCLOR 1254 (10%), Method: PREINCUBATION) “active; positive”.
In the case of `Cn1c(N)nc2nc3ncccc3cc21`, the mutagenic call is, setting by setting: (Test System: AMES SALMONELLA TYPHIMURIUM, Strain/Indicator: TA98, Metabolic Activation: RAT, LIVER, S-9, AROCLOR 1254A, Method: STANDARD PLATE) “inactive; negative”; (Test System: AMES SALMONELLA TYPHIMURIUM, Strain/Indicator: YG1024, Metabolic Activation: RAT, LIVER, S-9, AROCLOR 1254A, Method: STANDARD PLATE) “active; positive”.
Regarding `CN(C)CCCN1c2ccccc2Sc2ccc(Cl)cc21`, the mutagenic call is “inactive; negative” (End Point: IN VITRO CHROMOSOMAL ABERRATIONS, Test System: CHINESE HAMSTER OVARY CELLS, Metabolic Activation: NONE); “inactive; negative” (End Point: IN VITRO CHROMOSOMAL ABERRATIONS, Test System: CHINESE HAMSTER OVARY CELLS, Metabolic Activation: RAT, LIVER, S-9, AROCLOR 1254); “inactive; negative” under setting [1]; “inactive; negative” under setting [2]; “inactive; negative” (Test System: AMES SALMONELLA TYPHIMURIUM, Strain/Indicator: TA98, Metabolic Activation: NONE, Method: SPOT TEST); “inactive; negative” under setting [3]. The mutagenic call is, setting by setting: under setting [4], “inactive; negative”; under setting [5], “inactive; negative”; under setting [6], “inactive; negative”; under setting [7], “inactive; negative”; under setting [8], “inactive; negative”; under setting [9], “inactive; negative”. The mutagenic call was “inactive; negative” under setting [10]; “inactive; negative” under setting [11]; “inactive; negative” under setting [12]; “inactive; negative” (Test System: AMES SALMONELLA TYPHIMURIUM, Strain/Indicator: TA1535, Metabolic Activation: NONE, Method: STANDARD PLATE); “inactive; negative” under setting [13]; “inactive; negative” (Test System: AMES SALMONELLA TYPHIMURIUM, Strain/Indicator: TA1535, Metabolic Activation: RAT, LIVER, S-9, AROCLOR 1254, Method: STANDARD PLATE). Further, the mutagenic call reads like this: under setting [14], “inactive; negative”; under setting [15], “inactive; negative”; (Test System: AMES SALMONELLA TYPHIMURIUM, Strain/Indicator: TA1537, Metabolic Activation: NONE, Method: STANDARD PLATE) “inactive; negative”; under setting [16], “active; positive”; (Test System: AMES SALMONELLA TYPHIMURIUM, Strain/Indicator: TA1537, Metabolic Activation: RAT, LIVER, S-9, AROCLOR 1254, Method: STANDARD PLATE) “inactive; negative”; (Test System: CHINESE HAMSTER V-79, Strain/Indicator: V-79/6-THIOGUANINE, Metabolic Activation: NONE) “inactive; negative”. In addition, the mutagenic call (Test System: CHINESE HAMSTER V-79, Strain/Indicator: V-79/OUABAIN, Metabolic Activation: NONE) is “inactive; negative”.
`COc1cc2c(cc1OC)[C@@]13CCN4CC5=CCO[C@H]6CC(=O)N2[C@H]1[C@H]6[C@H]5C[C@H]43`: the mutagenic call is “inactive; negative” under setting [1]; “inactive; negative” under setting [2]; “inactive; negative” under setting [4]; “inactive; negative” under setting [6]; “inactive; negative” under setting [7]; “inactive; negative” under setting [9]. Besides, the mutagenic call is “inactive; negative” under setting [11]; “inactive; negative” under setting [12]; “inactive; negative” under setting [13]; “inactive; negative” under setting [14]; “inactive; negative” under setting [15]; “inactive; negative” under setting [16].
